± gives the expanded uncertainty stated by the source.
Assay: molar heat capacity at constant pressure
Conditions: 101.33 kPa, Vacuum adiabatic calorimetry

CCOS(=O)(=O)[O-].CCn1cc[n+](C)c1 [1-ethyl-3-methylimidazolium ethyl sulfate]
Conditions	molar heat capacity at constant pressure [J/K/mol]
79.23 K, Glass	127.8 ± 8.9
79.7 K, Glass	128.6 ± 9
80.51 K, Glass	129.4 ± 9.1
81.67 K, Glass	130.9 ± 9.2
82.84 K, Glass	131.5 ± 9.2
83.99 K, Glass	133.2 ± 9.3
85.31 K, Glass	135.2 ± 9.5
86.78 K, Glass	136.3 ± 9.5
88.25 K, Glass	137.9 ± 9.7
89.7 K, Glass	138.8 ± 9.7
91.13 K, Glass	141.2 ± 9.9
92.56 K, Glass	142.2 ± 10
93.97 K, Glass	143.4 ± 10
95.39 K, Glass	145.2 ± 10
96.79 K, Glass	146.4 ± 10
98.17 K, Glass	147.5 ± 10
99.54 K, Glass	149.6 ± 10
100.91 K, Glass	151 ± 11
102.27 K, Glass	151.6 ± 11
103.61 K, Glass	152.9 ± 11
104.96 K, Glass	154.3 ± 11
106.29 K, Glass	155.3 ± 11
107.62 K, Glass	155.8 ± 11
108.95 K, Glass	157.3 ± 11
110.26 K, Glass	158.3 ± 11
111.57 K, Glass	159.1 ± 11
112.87 K, Glass	160.6 ± 11
114.17 K, Glass	162.4 ± 11
115.46 K, Glass	163.1 ± 11
116.74 K, Glass	163.6 ± 12
118.02 K, Glass	165.2 ± 12
119.29 K, Glass	166.8 ± 12
120.55 K, Glass	167.9 ± 12
121.82 K, Glass	168.9 ± 12
123.06 K, Glass	170.1 ± 12
124.32 K, Glass	170.7 ± 12
125.55 K, Glass	172.1 ± 12
126.8 K, Glass	173.9 ± 12
128.22 K, Glass	174.7 ± 12
129.84 K, Glass	176.7 ± 12
131.45 K, Glass	178.2 ± 12
133.04 K, Glass	178.9 ± 12
134.63 K, Glass	180 ± 13
136.21 K, Glass	181.3 ± 13
137.77 K, Glass	183.2 ± 13
139.34 K, Glass	184.6 ± 13
140.89 K, Glass	185.1 ± 13
142.73 K, Glass	187.4 ± 13
144.86 K, Glass	189.6 ± 13
146.97 K, Glass	191.6 ± 13
149.07 K, Glass	194.6 ± 14
151.16 K, Glass	196.7 ± 14
153.21 K, Glass	198.7 ± 14
155.27 K, Glass	200.9 ± 14
157.3 K, Glass	202.8 ± 14
159.33 K, Glass	203.6 ± 14
161.34 K, Glass	205.9 ± 14
163.34 K, Glass	208.6 ± 15
165.33 K, Glass	210.2 ± 15
167.3 K, Glass	212.6 ± 15
169.27 K, Glass	214.9 ± 15
171.23 K, Glass	216.9 ± 15
173.18 K, Glass	218.1 ± 15
175.11 K, Glass	220.4 ± 15
177.05 K, Glass	223.2 ± 16
178.98 K, Glass	226 ± 16
180.91 K, Glass	229.3 ± 16
182.83 K, Glass	231.6 ± 16
184.74 K, Glass	234.3 ± 16
186.65 K, Glass	238 ± 17
188.56 K, Glass	243.9 ± 17
190.42 K, Glass	251.8 ± 18
192.11 K, Glass	273.4 ± 19
193.57 K, Glass	313.7 ± 22
194.94 K, Glass	340.7 ± 24
196.36 K, Liquid	346.8 ± 24
197.81 K, Liquid	347.7 ± 24
199.27 K, Liquid	348.4 ± 24
200.76 K, Liquid	349.4 ± 24
202.25 K, Liquid	349.9 ± 24
203.79 K, Liquid	350.5 ± 24
205.33 K, Liquid	350.9 ± 25
206.9 K, Liquid	351.5 ± 25
208.47 K, Liquid	351.9 ± 25
210.06 K, Liquid	352.4 ± 25
211.66 K, Liquid	352.8 ± 25
213.18 K, Liquid	353.2 ± 25
214.52 K, Liquid	353.7 ± 25
215.86 K, Liquid	354.1 ± 25
217.18 K, Liquid	354.5 ± 25
218.5 K, Liquid	354.9 ± 25
219.81 K, Liquid	355.4 ± 25
221.12 K, Liquid	355.7 ± 25
222.41 K, Liquid	356.1 ± 25
223.71 K, Liquid	356.5 ± 25
225 K, Liquid	356.8 ± 25
226.27 K, Liquid	357.1 ± 25
227.54 K, Liquid	357.5 ± 25
228.79 K, Liquid	357.8 ± 25
230.03 K, Liquid	358.1 ± 25
231.26 K, Liquid	358.4 ± 25
232.46 K, Liquid	359 ± 25
233.66 K, Liquid	359.3 ± 25
234.84 K, Liquid	359.6 ± 25
236.02 K, Liquid	359.8 ± 25
237.19 K, Liquid	360.2 ± 25
238.37 K, Liquid	360.5 ± 25
239.54 K, Liquid	361 ± 25
240.7 K, Liquid	361.3 ± 25
241.86 K, Liquid	361.5 ± 25
243.01 K, Liquid	361.9 ± 25
244.15 K, Liquid	362.2 ± 25
245.29 K, Liquid	362.5 ± 25
246.43 K, Liquid	363.1 ± 25
247.58 K, Liquid	363.5 ± 25
248.73 K, Liquid	363.9 ± 26
249.88 K, Liquid	364.2 ± 26
251.02 K, Liquid	364.5 ± 26
252.17 K, Liquid	364.8 ± 26
253.31 K, Liquid	365.5 ± 26
254.45 K, Liquid	365.8 ± 26
255.6 K, Liquid	366.1 ± 26
256.73 K, Liquid	366.3 ± 26
257.87 K, Liquid	366.8 ± 26
259 K, Liquid	367.1 ± 26
260.13 K, Liquid	367.4 ± 26
261.27 K, Liquid	367.6 ± 26
262.4 K, Liquid	367.8 ± 26
263.53 K, Liquid	368 ± 26
264.66 K, Liquid	368.3 ± 26
265.8 K, Liquid	368.7 ± 26
266.93 K, Liquid	369.1 ± 26
268.06 K, Liquid	369.4 ± 26
269.19 K, Liquid	369.5 ± 26
270.33 K, Liquid	369.9 ± 26
271.45 K, Liquid	370.3 ± 26
272.58 K, Liquid	370.8 ± 26
273.71 K, Liquid	371 ± 26
274.83 K, Liquid	371.2 ± 26
275.94 K, Liquid	371.5 ± 26
277.06 K, Liquid	371.8 ± 26
278.18 K, Liquid	372 ± 26
279.28 K, Liquid	372.4 ± 26
280.39 K, Liquid	373 ± 26
281.5 K, Liquid	373.1 ± 26
282.62 K, Liquid	373.5 ± 26
283.72 K, Liquid	373.8 ± 26
284.83 K, Liquid	374.2 ± 26
285.95 K, Liquid	374.5 ± 26
287.05 K, Liquid	374.7 ± 26
288.15 K, Liquid	375 ± 26
289.26 K, Liquid	375.4 ± 26
290.37 K, Liquid	375.6 ± 26
291.47 K, Liquid	376 ± 26
292.58 K, Liquid	376.1 ± 26
293.69 K, Liquid	376.5 ± 26
294.79 K, Liquid	376.8 ± 26
295.9 K, Liquid	377 ± 26
297 K, Liquid	377.4 ± 26
298.11 K, Liquid	378 ± 26
299.22 K, Liquid	378.2 ± 26
300.32 K, Liquid	378.6 ± 26
301.43 K, Liquid	378.9 ± 26
302.54 K, Liquid	379.1 ± 26
303.64 K, Liquid	379.3 ± 27
304.74 K, Liquid	379.6 ± 27
305.86 K, Liquid	379.9 ± 27
306.96 K, Liquid	380.1 ± 27
308.07 K, Liquid	380.3 ± 27
309.18 K, Liquid	380.4 ± 27
310.29 K, Liquid	380.8 ± 27
311.4 K, Liquid	380.9 ± 27
312.52 K, Liquid	381.2 ± 27
313.63 K, Liquid	381.6 ± 27
314.75 K, Liquid	381.8 ± 27
315.85 K, Liquid	382 ± 27
316.97 K, Liquid	382.3 ± 27
318.08 K, Liquid	382.7 ± 27
319.19 K, Liquid	383 ± 27
320.31 K, Liquid	383.1 ± 27
321.42 K, Liquid	383.4 ± 27
322.53 K, Liquid	383.6 ± 27
323.66 K, Liquid	383.9 ± 27
324.75 K, Liquid	383.9 ± 27
325.84 K, Liquid	384.4 ± 27
326.92 K, Liquid	384.6 ± 27
327.99 K, Liquid	384.8 ± 27
329.08 K, Liquid	384.9 ± 27
330.17 K, Liquid	385.1 ± 27
331.26 K, Liquid	385.6 ± 27
332.35 K, Liquid	385.9 ± 27
333.43 K, Liquid	386.1 ± 27
334.52 K, Liquid	386.5 ± 27
335.6 K, Liquid	386.6 ± 27
336.68 K, Liquid	386.9 ± 27
337.77 K, Liquid	387.3 ± 27
338.86 K, Liquid	387.4 ± 27
339.94 K, Liquid	387.8 ± 27
341.04 K, Liquid	388.1 ± 27
342.13 K, Liquid	388.3 ± 27
343.22 K, Liquid	388.6 ± 27
344.31 K, Liquid	388.9 ± 27
345.4 K, Liquid	389.2 ± 27
346.49 K, Liquid	389.5 ± 27
347.58 K, Liquid	389.7 ± 27
348.65 K, Liquid	390 ± 27
349.73 K, Liquid	390.2 ± 27
350.82 K, Liquid	390.5 ± 27
351.91 K, Liquid	390.8 ± 27
353.01 K, Liquid	391.3 ± 27
354.11 K, Liquid	391.6 ± 27
355.22 K, Liquid	392 ± 27
356.31 K, Liquid	392.3 ± 28
357.42 K, Liquid	392.5 ± 28
358.53 K, Liquid	392.7 ± 28
359.63 K, Liquid	392.8 ± 28
360.75 K, Liquid	392.9 ± 28
361.87 K, Liquid	393.1 ± 28
363 K, Liquid	393.4 ± 28
364.13 K, Liquid	393.5 ± 28
365.29 K, Liquid	393.6 ± 28
366.38 K, Liquid	393.9 ± 28
367.47 K, Liquid	394.1 ± 28
368.52 K, Liquid	394.5 ± 28
369.63 K, Liquid	394.7 ± 28
370.76 K, Liquid	394.9 ± 28
371.78 K, Liquid	395.1 ± 28
372.82 K, Liquid	395.3 ± 28
373.9 K, Liquid	395.6 ± 28
374.98 K, Liquid	395.8 ± 28
376.02 K, Liquid	396.2 ± 28
377.08 K, Liquid	396.5 ± 28
378.13 K, Liquid	396.8 ± 28
379.52 K, Liquid	397.1 ± 28
380.42 K, Liquid	397.3 ± 28
381.38 K, Liquid	397.5 ± 28
382.35 K, Liquid	397.8 ± 28
383.43 K, Liquid	398 ± 28
384.34 K, Liquid	398.2 ± 28
385.25 K, Liquid	398.5 ± 28
386.14 K, Liquid	398.8 ± 28
387.09 K, Liquid	399.1 ± 28
388.01 K, Liquid	399.5 ± 28
388.98 K, Liquid	399.7 ± 28
389.95 K, Liquid	399.9 ± 28
